Data published in US20260356860A1, “2-SUBSTITUTED 3,4A,5,7,8,8A-HEXAHYDRO-4H-THIOPYRANO[4,3-DJPYRIMIDIN-4-ONES FOR WOUND TREATMENT” (priority 2022, published 2026).

How the values were obtained:
Assay in all cases: Bacteriostasis, log reduction
Type in all cases: cell-based
[1] = test system: E. coli (derived from ATCC ® 25922 ™); conditions: E. coli ATCC 25922
Description: (§1) In order to assess the log reduction capabilities of compounds of Formula (1), testing was performed on organisms that are found in acute and chronic wounds. Triplicate tubes were prepared for each bacteria using 50 μL of inoculum (about 1×10^6 CFU/mL) which was added to 450 μL of compound solution (compound of Formula (I)) (or 100 μL of inoculum in 900 μL of compound solution), resulting in a final inoculum of about 1×10^5 CFU/mL, as shown in Table 4.
(§2) Tubes were mixed with a vortex and then incubated in a shaking incubator at 175 RPM and 35° C. to 37° C.
(§3) Positive control in Tables 5a and 5b was 1 mL of 0.89% saline with 1 mL of the 1×10^6 CFU/mL of the organism.
(§4) For Compounds 1, 7, 8, 10, and 18 in Tables 6, 7-A, 7-B, 8, 9, 10-A, 10-B, and 11: The compound solutions were prepared with compound (30 mg), polysorbate 20 (1.6 mL), butylene glycol (1.6 mL), phosphatidyl choline (0.66 g), ethanol (1.6 mL), hydroxypropyl cellulose (0.26 g), and ultra pure water (24.9 mL).
(§5) XAV939 Control in Table X1 was XAV939 (30 mg), polysorbate 20 (1.6 mL), butylene glycol (1.6 mL), phosphatidyl choline (0.66 g), ethanol (1.6 mL), ultra pure water (24.9 mL), and hydroxypropyl cellulose (0.26 g).
(§6) GO-HA Control in Table X2 was GO-HA (30 mg), polysorbate 20 (1.6 mL), butylene glycol (1.6 mL), phosphatidyl choline (0.66 g), ethanol (1.6 mL), ultra pure water (24.9 mL), and hydroxypropyl cellulose (0.26 g).
(§7) For Compound 18+GO-HA in Tables 6 and X4: compound 18 (45 mg), GO-HA (45 mg), polysorbate 20 (2 mL), butylene glycol (2 mL), phosphotidyl choline (0.5 g), ethanol (2 mL), hydroxypropyl cellulose (0.40 g), and ultra pure water (40 mL).
(§8) For XAV939+GO-HA in Tables 6 and X3-A, and X3-B: XAV939 (45 mg), GO-HA (45 mg), butylene glycol (2 mL), polysorbate 20 (2 mL), phosphotidyl choline (0.5 g), ethanol (2 mL), hydroxypropyl cellulose (0.40 g), and ultra pure water (40 mL).
(§9) Testing was performed at two time points: 18 to 24 hours, and […].

[2] = test system: S. aureus (derived from ATCC ® 6538 ™); conditions: S. aureus ATCC 6538
Description: as §1, §2, §3, §4, §5, §6, §7, §8, §9

[3] = test system: E. coli (derived from ATCC ® 8739 ™); conditions: E. coli ATCC 8739
Description: as §1, §2, §3, §4, §5, §6, §7, §8, §9

[4] = test system: S. epidermidis (derived from ATCC ® 14990 ™); conditions: S. epidermidis ATCC 14990
Description: as §1, §2, §3, §4, §5, §6, §7, §8, §9

[5] = test system: P. aeruginosa (derived from ATCC ® 15442 ™); conditions: P. aeruginosa ATCC 15442
Description: as §1, §2, §3, §4, §5, §6, §7, §8, §9

[6] = test system: E. faecalis (derived from ATCC ® 19433 ™); conditions: E. faecalis ATCC 19433
Description: as §1, §2, §3, §4, §5, §6, §7, §8, §9

O=c1[nH]c(-c2ccc(-c3ccc(Br)nc3)cc2)nc2c1CSCC2 [Compound 7, 2-(4-(6-bromopyridin-3-yl)phenyl)-3,5,7,8-tetrahydro-4H-thiopyrano [4,3-d]pyrimidin-4-one]
Average result ([1]; 24 h): 3.2 × 10^5 | Log Reduction ([1]; 24 h): No | Log Value ([1]; 24 h): 5.5 | Average result ([1]; 72 h): 2.7 × 10^4 | Log Reduction ([1]; 72 h): 1.0 | Log Value ([1]; 72 h): 4.4 | Average result ([2]; 24 h): 7.3 × 10^2 | Log Reduction ([2]; 24 h): 2.4 | Log Value ([2]; 24 h): 2.9 | Average result ([2]; 72 h): <200 | Log Reduction ([2]; 72 h): >3.0 | Log Value ([2]; 72 h): <2.3 | Average result ([3]; 24 h): 7.9 × 10^4 | Log Reduction ([3]; 24 h): 0.4 | Log Value ([3]; 24 h): 4.9 | Average result ([3]; 72 h): >3.6 × 10^6 | Log Reduction ([3]; 72 h): No | Log Value ([3]; 72 h): >6.6 | Average result ([4]; 24 h): 2.8 × 10^4 | Log Reduction ([4]; 24 h): 0.4 | Log Value ([4]; 24 h): 4.4 | Average result ([4]; 72 h): <200 | Log Reduction ([4]; 72 h): >2.5 | Log Value ([4]; 72 h): <2.3 | Average result ([5]; 24 h): <200 | Log Reduction ([5]; 24 h): >3.1 | Log Value ([5]; 24 h): <2.3 | Average result ([5]; 72 h): <200 | Log Reduction ([5]; 72 h): >3.1 | Log Value ([5]; 72 h): <2.3 | Average result ([6]; 24 h): 9.3 × 10^5 | Log Reduction ([6]; 24 h): No | Log Value ([6]; 24 h): 6.0 | Average result ([6]; 72 h): 6.9 × 10^5 | Log Reduction ([6]; 72 h): No | Log Value ([6]; 72 h): 5.8

CC(C)(OCCO)c1ccc(-c2nc3c(c(=O)[nH]2)CSCC3)cc1 [Compound 8, 2-(4-(2-(2-hydroxyethoxy)propan-2-yl)phenyl)-3,5,7,8-tetrahydro-4H-thiopyrano[4,3-d]pyrimidin-4-one]
Average result ([1]; 24 h): 200 | Log Reduction ([1]; 24 h): 3.1 | Log Value ([1]; 24 h): 2.3 | Average result ([1]; 72 h): <200 | Log Reduction ([1]; 72 h): >3.1 | Log Value ([1]; 72 h): <2.3 | Average result ([2]; 24 h): 5.4 × 10^4 | Log Reduction ([2]; 24 h): 0.6 | Log Value ([2]; 24 h): 4.7 | Average result ([2]; 72 h): <7.4 × 10^3 | Log Reduction ([2]; 72 h): >1.4 | Log Value ([2]; 72 h): <3.9 | Average result ([3]; 24 h): 3.1 × 10^3 | Log Reduction ([3]; 24 h): 1.8 | Log Value ([3]; 24 h): 3.5 | Average result ([3]; 72 h): 6.8 × 10^4 | Log Reduction ([3]; 72 h): 0.5 | Log Value ([3]; 72 h): 4.8 | Average result ([4]; 24 h): 6.0 × 10^2 | Log Reduction ([4]; 24 h): 2.0 | Log Value ([4]; 24 h): 2.8 | Average result ([4]; 72 h): <200 | Log Reduction ([4]; 72 h): >2.5 | Log Value ([4]; 72 h): <2.3 | Average result ([5]; 24 h): 7.3 × 10^2 | Log Reduction ([5]; 24 h): 2.5 | Log Value ([5]; 24 h): 2.9 | Average result ([5]; 72 h): <200 | Log Reduction ([5]; 72 h): >3.1 | Log Value ([5]; 72 h): <2.3 | Average result ([6]; 24 h): 3.4 × 10^5 | Log Reduction ([6]; 24 h): No | Log Value ([6]; 24 h): 5.5 | Average result ([6]; 72 h): 6.5 × 10^4 | Log Reduction ([6]; 72 h): No | Log Value ([6]; 72 h): 4.8
